Measured values taken from PMC10892288, “Early Stage Preclinical Formulation Strategies to Alter the Pharmacokinetic Profile of Two Small Molecule Therapeutics” (Pharmaceuticals, 2024).

Assays:
[1] = Log P (physiochemical properties); format: physicochemical
[2] = Mouse IV infusion of G7883 by iPRECIO pump; format: in vivo, female C57BL-6 mice
Excerpt: This is often a concern for molecules in early drug discovery stages. Various formulation and delivery strategies have been devised to modify the systemic PK profiles of drug molecules, encompassing nanoparticles, microparticles, lipid and polymer conjugation, implanted infusion pump device technologies, and subcutaneous depots. Here, we examined two strategies aimed at maintaining the drug concentration at a designed target concentration for the maximum duration potentially needed for proof of concept studies. The initial approach involved using an implantable device, the iPRECIO pump that allows for a controlled and sustained infusion, as opposed to a typical bolus IV injection. The infusion pump strategies can be a promising tool to achieve the desired delivery profile of a compound, given the solubility requirements based on the intended target release and PK profile. […]
All plasma and cell media concentrations of G7883 and G6893 were determined using liquid chromatography–tandem mass spectrometry after protein precipitation with acetonitrile and injection of the supernatant onto the column (Waters ACQUITY UPLC BEH C18 1.7 μm, 2.1 × 50 mm for G7883 and G6893). […] The lower limit of quantitation of the assay was 5.1 ng/mL, and the dilution quality control concentration was set at 10 ng/mL with acceptance criteria for accuracy and precision of 25%.

[3] = Vehicle screening for solution or suspension formulations; format: physicochemical
Experimental: Based on the target concentration, G7883 was screened at 3.3 mg/mL in three different vehicles of 100%PEG400, 10%DMSO in 90%PEG400, and 20%DMSO in 80%PEG400 to generate a stable solution. […] A total of 50% DMSO is the maximum amount compatible with the iPRECIO pump system. Based on the target concentration, G6893 was screened at 5 mg/mL in four different vehicles as follows: 100% PEG400, 20% DMSO in 80% PEG400, 20% DMA and 40% PG in 40% PEG400, and 10% EtOH and 20% HPbCD in 70% water at pH 4.5. G6893 achieved a solution at the target concentration of 5 mg/mL in 100% PEG400 and maintained a solution without precipitation after dilution in PBS buffer.
G7883 was screened in different oil vehicles including corn, coconut, paraffin, soybean, and sunflower oil.

In the case of `Cc1nccnc1-c1nn2c(=O)cc(-c3ccc(C4CCCCC4)cc3)[nH]c2c1C(=O)N1CC(CF)C1` [G7883, 5-(4-cyclohexylphenyl)-3-[3-(fluoromethyl)azetidine-1-carbonyl]-2-(3-methylpyrazin-2-yl)-4H-pyrazolo[1,5-a]pyrimidin-7-one], the logP [1] is reported as 1.83, the “plasma concentration relative to target IC50” value ([2]; 3.3 mg/mL in 20% DMSO, 80% PEG400, 1.54 mg/h.kg, over 176 h, mouse) is reported as “plasma concentrations remained below the target IC50” and the “body weight over time” value ([2]; 20% DMSO, 80% PEG400, mouse) is reported as “prevention of body weight loss over time”. The “concentration at which a solution was achieved” value ([3]; 20%DMSO in 80%PEG400) was no less than 3300 µg/mL and the “solubility in oil vehicle (in words)” value ([3]; sunflower oil) was “moderate solubility”.
